Each molecule was assayed against T1, Recombinant human CBP containing the bromodomain (CBP-BD (1043-1159)) (Homo sapiens, UniProt Q92793) (assay: CBP Alphascreen binding assay). Conditions: read-out: CREBBP (CBP) IC50.
T1 construct: Recombinant human CBP bromodomain (CBP-BD (1043-1159)); made in house; host or cells: E. coli BL21-CodonPlus (DE3), modified pET vector
T1 sequence (Q92793 1081-1197): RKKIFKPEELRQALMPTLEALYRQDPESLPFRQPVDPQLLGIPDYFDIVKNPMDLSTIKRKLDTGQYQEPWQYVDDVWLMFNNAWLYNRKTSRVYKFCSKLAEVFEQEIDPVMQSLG
Method in brief: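 Buffer: 50 mM HEPES pH 7.5, 50 mM NaCl, 0.01% BSA, 0.01% Triton X-100, 2 mM DTT. The signal was normalised to plate controls and fitted with a four-parameter curve to give IC50.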
`Cc1noc(C)c1-c1cnc2c(c1)c(-c1ccc(C(=O)O)cc1)cn2[C@@H](C)c1ccccn1` [P-0001, (S)-4-(5-(3,5-dimethylisoxazol-4-yl)-1-(1-(pyridin-2-yl)ethyl)-1H-pyrrolo[2,3-b]pyridin-3-yl)benzoic acid] was tested, and the IC50 was 0.0001 to 1 µM. `Cc1noc(C)c1-c1cnc2c(c1)c(-c1ccc(C(=O)O)cc1)cn2C(c1ccccn1)C1CCCC1` (stereo not shown) [P-0002, 4-(1-(cyclopentyl(pyridin-2-yl)methyl)-5-(3,5-dimethylisoxazol-4-yl)-1H-pyrrolo[2,3-b]pyridin-3-yl)benzoic acid] gave an IC50 of 0.0001 to 1 µM. In the case of `Cc1noc(C)c1-c1cnc2c(c1)c(-c1ccccc1)cn2C(c1ccccn1)C1CCCC1` (stereo not shown) [P-0003, 4-(1-(cyclopentyl(pyridin-2-yl)methyl)-3-phenyl-1H-pyrrolo[2,3-b]pyridin-5-yl)-3,5-dimethylisoxazole], the IC50 is reported as 8 to 1000 µM. `Cc1noc(C)c1-c1cnc2c(c1)c(-c1ccc(C(=O)O)cc1)cn2C(c1ccccn1)C1CCCCC1` (stereo not shown) [P-0004, 4-(1-(cyclohexyl(pyridin-2-yl)methyl)-5-(3,5-dimethylisoxazol-4-yl)-1H-pyrrolo[2,3-b]pyridin-3-yl)benzoic acid] gave an IC50 of 0.0001 to 1 µM. Work on `COC(=O)c1ccc(-c2cn(S(=O)(=O)c3ccc(C)cc3)c3ncc(-c4c(C)noc4C)cc23)cc1` [P-0005, methyl 4-(5-(3,5-dimethylisoxazol-4-yl)-1-tosyl-1H-pyrrolo[2,3-b]pyridin-3-yl)benzoate] yielded an IC50 of 8 to 1000 µM. `Cc1noc(C)c1-c1cnc2c(c1)c(-c1ccnc(C(=O)O)c1)cn2S(=O)(=O)c1ccccc1` [P-0055, 4-(5-(3,5-dimethylisoxazol-4-yl)-1-(phenylsulfonyl)-1H-pyrrolo[2,3-b]pyridin-3-yl)picolinic acid] showed an IC50 of 0.0001 to 1 µM. `COc1cccc(Cn2cc(-c3cccc(C(=O)O)c3)c3cc(-c4c(C)noc4C)cnc32)c1` [P-0056, 3-(5-(3,5-dimethylisoxazol-4-yl)-1-(3-methoxybenzyl)-1H-pyrrolo[2,3-]pyridin-3-yl)benzoic acid] gave an IC50 of 0.0001 to 1 µM. Molecule `COc1cccc(Cn2cc(-c3ccnc(C(=O)O)c3)c3cc(-c4c(C)noc4C)cnc32)c1` [P-0057, 4-(5-(3,5-dimethylisoxazol-4-yl)-1-(3-methoxybenzyl)-1H-pyrrolo[2,3-b]pyridin-3-yl)picolinic acid] has an IC50 of 0.0001 to 1 µM. Work on `Cc1noc(C)c1-c1cnc2c(c1)c(-c1cccc(C(=O)O)c1)cn2C(C1CC1)C1CC1` [P-0058, 3-(1-(dicyclopropylmethyl)-5-(3,5-dimethylisoxazol-4-yl)-1H-pyrrolo[2,3-b]pyridin-3-yl)benzoic acid] yielded an IC50 of 0.0001 to 1 µM. `Cc1noc(C)c1-c1cnc2c(c1)c(-c1cccc(C(=O)O)c1)cn2Cc1cccc(OC(F)(F)F)c1` [P-0059, 3-(5-(3,5-dimethylisoxazol-4-yl)-1-(3-(trifluoromethoxy)benzyl)-1H-pyrrolo[2,3-b]pyridin-3-yl)benzoic acid] gave an IC50 of 0.0001 to 1 µM. In the case of `Cc1noc(C)c1-c1cnc2c(c1)c(-c1cccc(C(=O)O)c1)cn2Cc1cccc(F)c1` [P-0060, 3-(5-(3,5-dimethylisoxazol-4-yl)-1-(3-fluorobenzyl)-1H-pyrrolo[2,3-b]pyridin-3-yl)benzoic acid], the IC50 is reported as 0.0001 to 1 µM. Molecule `Cc1noc(C)c1-c1cnc2c(c1)c(-c1cccc(C(=O)O)c1)cn2Cc1cccc(Cl)c1` [P-0061, 3-(1-(3-chlorobenzyl)-5-(3,5-dimethylisoxazol-4-yl)-1H-pyrrolo[2,3-b]pyridin-3-yl)benzoic acid] has an IC50 of 0.0001 to 1 µM. `Cc1cccc(Cn2cc(-c3cccc(C(=O)O)c3)c3cc(-c4c(C)noc4C)cnc32)c1` [P-0062, 3-(5-(3,5-dimethylisoxazol-4-yl)-1-(3-methylbenzyl)-1H-pyrrolo[2,3-b]pyridin-3-yl)benzoic acid] showed an IC50 of 0.0001 to 1 µM. `Cc1noc(C)c1-c1cnc2c(c1)c(-c1cccc(C(=O)O)c1)cn2Cc1cccc(C(F)(F)F)c1` [P-0063, 3-(5-(3,5-dimethylisoxazol-4-yl)-1-(3-(trifluoromethyl)benzyl)-1H-pyrrolo[2,3-b]pyridin-3-yl)benzoic acid] showed an IC50 of 0.0001 to 1 µM. In the case of `Cc1noc(C)c1-c1cnc2c(CC3CCC3)cn(-c3ccc(C(=O)O)cc3OC(F)F)c2c1` [P-0064, 4-(3-(cyclobutylmethyl)-6-(3,5-dimethylisoxazol-4-yl)-1H-pyrrolo[3,2-b]pyridin-1-yl)-3-(difluoromethoxy)benzoic acid], the IC50 is reported as 0.0001 to 1 µM. Work on `Cc1noc(C)c1-c1cnc2c(CC3CC3)cn(-c3ccnc(C(=O)O)c3)c2c1` [P-0065, 4-(3-(cyclopropylmethyl)-6-(3,5-dimethylisoxazol-4-yl)-1H-pyrrolo[3,2-b]pyridin-1-yl)picolinic acid] yielded an IC50 of 0.0001 to 1 µM. `Cc1noc(C)c1-c1cnc2c(CC3CCC3)cn(-c3ccc(C(=O)O)cc3OC(F)(F)F)c2c1` [P-0066, 4-(3-(cyclobutylmethyl)-6-(3,5-dimethylisoxazol-4-yl)-1H-pyrrolo[3,2-b]pyridin-1-yl)-3-(trifluoromethoxy)benzoic acid] gave an IC50 of 0.0001 to 1 µM. With `COc1cc(C(=O)O)cc(OC)c1-n1cc(CC2CCC2)c2ncc(-c3c(C)noc3C)cc21` [P-0067, 4-(3-(cyclobutylmethyl)-6-(3,5-dimethylisoxazol-4-yl)-1H-pyrrolo[3,2-b]pyridin-1-yl)-3,5-dimethoxybenzoic acid] the IC50 was 0.0001 to 1 µM. For `Cc1noc(C)c1-c1cnc2c(CC3CCC3)cn(-c3ccc(S(C)(=O)=O)c(F)c3)c2c1` [P-0068, 4-(3-(cyclobutylmethyl)-1-(3-fluoro-4-(methylsulfonyl)phenyl)-1H-pyrrolo[3,2-b]pyridin-6-yl)-3,5-dimethylisoxazole], the IC50 was 0.0001 to 1 µM. With `Cc1noc(C)c1-c1cnc2c(c1)c(C#CC(=O)O)cn2Cc1ccccc1` [P-0069, 3-(1-benzyl-5-(3,5-dimethylisoxazol-4-yl)-1H-pyrrolo[2,3-b]pyridin-3-yl)propiolic acid] the IC50 was 0.0001 to 1 µM. In the case of `Cc1noc(C)c1-c1cnc2c(c1)c(-c1ccc(C(=O)O)cc1OC(F)(F)F)cn2[C@@H](C)c1ccccn1` [P-0070, (S)-4-(5-(3,5-dimethylisoxazol-4-yl)-1-(1-(pyridin-2-yl)ethyl)-1H-pyrrolo[2,3-b]pyridin-3-yl)-3-(trifluoromethoxy)benzoic acid], the IC50 is reported as 0.0001 to 1 µM. `Cc1noc(C)c1-c1cnc2c(c1)c(-c1ccc(C(=O)O)cc1OC(F)F)cn2[C@@H](C)c1ccccn1` [P-0071, (S)-3-(difluoromethoxy)-4-(5-(3,5-dimethylisoxazol-4-yl)-1-(1-(pyridin-2-yl)ethyl)-1H-pyrrolo[2,3-b]pyridin-3-yl)benzoic acid] gave an IC50 of 0.0001 to 1 µM. Work on `Cc1noc(C)c1-c1cnc2c(c1)c(-c1cccc(C(=O)O)c1)cn2C(C1CCC1)C1CCC1` [P-0072, 3-(1-(dicyclobutylmethyl)-5-(3,5-dimethylisoxazol-4-yl)-1H-pyrrolo[2,3-b]pyridin-3-yl)benzoic acid] yielded an IC50 of 0.0001 to 1 µM. `Cc1noc(C)c1-c1cnc2c(c1)c(-c1cccc(C(=O)O)c1)cn2C(c1ccccn1)C1CCC1` (stereo not shown) [P-0073, 3-(1-(cyclobutyl(pyridin-2-yl)methyl)-5-(3,5-dimethylisoxazol-4-yl)-1H-pyrrolo[2,3-b]pyridin-3-yl)benzoic acid] gave an IC50 of 0.0001 to 1 µM. `Cc1noc(C)c1-c1cnc2c(CC3CCC3)cn(-c3c(Cl)cc(C(=O)O)cc3Cl)c2c1` [P-0074, 3,5-dichloro-4-(3-(cyclobutylmethyl)-6-(3,5-dimethylisoxazol-4-yl)-1H-pyrrolo[3,2-b]pyridin-1-yl)benzoic acid] was tested, and the IC50 was 0.0001 to 1 µM. For `Cc1cc(C(=O)O)cnc1-n1cc(CC2CCC2)c2ncc(-c3c(C)noc3C)cc21` [P-0075, 6-(3-(cyclobutylmethyl)-6-(3,5-dimethylisoxazol-4-yl)-1H-pyrrolo[3,2-b]pyridin-1-yl)-5-methylnicotinic acid], the IC50 was 0.0001 to 1 µM. Work on `Cc1noc(C)c1-c1cnc2c(CC3CCC3)cn(-c3ccc(C#N)cc3)c2c1` [P-0076, 4-(3-(cyclobutylmethyl)-6-(3,5-dimethylisoxazol-4-yl)-1H-pyrrolo[3,2-b]pyridin-1-yl)benzonitrile] yielded an IC50 of 1 to 8 µM. With `Cc1noc(C)c1-c1cnc2c(CC3CCC3)cn(-c3ccnc(C#N)c3)c2c1` [P-0077, 4-(3-(cyclobutylmethyl)-6-(3,5-dimethylisoxazol-4-yl)-1H-pyrrolo[3,2-b]pyridin-1-yl)picolinonitrile] the IC50 was 0.0001 to 1 µM. `Cc1noc(C)c1-c1cnc2c(c1)c(-c1cccc(C(=O)NC#N)c1)cn2Cc1ccccc1` [P-0078, 3-(1-benzyl-5-(3,5-dimethylisoxazol-4-yl)-1H-pyrrolo[2,3-b]pyridin-3-yl)-N-cyanobenzamide] gave an IC50 of 1 to 8 µM. Work on `Cc1noc(C)c1-c1cnc2c(c1)c(-c1cccc(C(=O)NO)c1)cn2Cc1ccccc1` [P-0079, 3-(1-benzyl-5-(3,5-dimethylisoxazol-4-yl)-1H-pyrrolo[2,3-b]pyridin-3-yl)-N-hydroxybenzamide] yielded an IC50 of 0.0001 to 1 µM. `Cc1noc(C)c1-c1cnc2c(c1)c(-c1ccc(C(=O)O)cc1)cn2C(C)c1ccccn1` (stereo not shown) [P-0080, 4-(5-(3,5-dimethylisoxazol-4-yl)-1-(1-(pyridin-2-yl)ethyl)-1H-pyrrolo[2,3-b]pyridin-3-yl)benzoic acid] was tested, and the IC50 was 1 to 8 µM. For `Cc1noc(C)c1-c1cnc2c(c1)c(-c1cccc(S(N)(=O)=O)c1)cn2Cc1ccccc1` [P-0081, 3-(1-benzyl-5-(3,5-dimethylisoxazol-4-yl)-1H-pyrrolo[2,3-b]pyridin-3-yl)benzenesulfonamide], the IC50 was 1 to 8 µM. `CNS(=O)(=O)c1cccc(-c2cn(Cc3ccccc3)c3ncc(-c4c(C)noc4C)cc23)c1` [P-0082, 3-(1-benzyl-5-(3,5-dimethylisoxazol-4-yl)-1H-pyrrolo[2,3-b]pyridin-3-yl)-N-methylbenzenesulfonamide] gave an IC50 of 8 to 1000 µM. `Cc1noc(C)c1-c1cnc2c(c1)c(-c1cccc(S(=O)(=O)NC3CC3)c1)cn2Cc1ccccc1` [P-0083, 3-(1-benzyl-5-(3,5-dimethylisoxazol-4-yl)-1H-pyrrolo[2,3-b]pyridin-3-yl)-N-cyclopropylbenzenesulfonamide] was tested, and the IC50 was 1 to 8 µM.

From patent US11446287B2, “Compounds and methods for EP300 or CBP modulation and indications therefor” (Opna Immuno-Oncology SA, priority 2019, dated 2022)
